The record followed here is patent publication US10370697B2, “Propeptide-luciferase fusion proteins and methods of use thereof” (THE BROAD INSTITUTE, INC., priority 2011, dated 2019).

The test system of assay [1] is MIN6 cells expressing proinsulin-luciferase construct. The assay is described as follows: High-throughput luciferase secretion screen, proinsulin-luciferase reporter, 384-well. Format: cell-based, mouse. Particulars: for Z-score / Z-score With Glucose / Z-score Without Glucose: luciferase secretion, 30 μM, 1 hour; for Z-score: 1600 compound screen, Z-score vs DMSO wells; for Z-score / Z-score With Glucose: 100 mg/dL glucose; for Z-score With Glucose / Z-score Without Glucose: repeated 1600-compound screen; for Z-score Without Glucose: absence of glucose. The protocol:
MIN6 and INS-1E cells were expanded to 80% confluence in their respective growth media, washed once in PBS and incubated for 1 hour at 37° C. in KRB without glucose. Cells were then dissociated, spun at 300 g×2 minutes, resuspended in fresh KRB without glucose and filtered through 40 μm mesh (Becton Dickenson®). Next, the cells were counted and diluted in KRB to 1×10^6 cells per mL, and glucose was added as required for each experiment. Cells were then seeded in 384-well format, 3×10^4 cells in 30 μL per well, using a Multidrop™ Combi device (Thermo Scientific®, Billerica, Mass.). Compounds from the Pharmakon 1600 Collection (Microsource Discovery Systems™, Gaylordsville, Conn.) were pinned into each well using a CyBio® Vario (CyBio®, Jena, Germany) to a final concentration of 30 μM, and the plates were then incubated for 1 hour at 37° C. The plates were then spun at 300 g×2 minutes and the supernatant transferred to a new 384-well plate. Coelenterazine substrate was then added to a final concentration of 20 μM and luciferase activity determined using a standard plate reader (Biotek®).
For the high-throughput screens, the Z-score of each test compound was calculated using the formula: […]
where x is the log-transformed, signal decay-adjusted luciferase signal from a compound-treated well, μ is the mean of the log-transformed luciferase signals from the DMSO-treated wells on the same plate, and a is the standard deviation of the log-transformed luciferase signals of the DMSO-treated wells across all plates (to allow for cross-plate comparison of compounds). Prior to calculating the Z-score, a row-based correction factor was applied to all luciferase readings to adjust for the rapid signal decay occurring during the course of each 384-well plate read. The signal decay was modeled as a logarithmic function (Microsoft® Excel) and then used to adjust each well's luciferase reading based on the corresponding row within the plate.
We performed a pilot chemical screen at a substimulatory glucose concentration (100 mg/dL) in MIN6 cells using a collection of 1600 known bioactive small molecules, with the sulfonylurea glipizide included as a positive control. […] Several commonly used drugs without known links to beta-cell function caused significant increases in luciferase secretion in our assay (compounds summarized in Table 1).
As there is a well-recognized need for glucose-dependent small-molecule agonists of insulin secretion, we subsequently evaluated whether our assay could be adapted to find such secretagogues. We repeated the 1600-compound screen in the presence and absence of a substimulatory glucose concentration (100 mg/dL).
(Reporter assays use an easily measured gene product as a stand-in for the process of interest.)

Assay [2] deals with MIN6 mouse beta cell line. The assay is described as follows: Luciferase secretion, preproamylin-Gaussia luciferase (PAG) reporter. The format is cell-based. Particulars: 1 hour at the indicated glucose concentrations; 25 uM glipizide, 50 uM IBMX, 20 uM forskolin, 40 mM KCl, 20 uM PMA. The protocol: FIG. 4 is a graph showing the pre-proamylin-luciferase reporter in MIN6 cells responds as predicted to known insulin secretagogues. Cells were treated for 1 hour at the indicated glucose concentrations with either DMSO, 25 uM glipizide, 2.5 uM glucokinase activator (GKA), 50 uM 3-isobutyl-1-methylxanthine (IBMX), 20 uM forskolin, 40 mM potassium chloride (KCl), or 20 uM phorbol myristate acetate (PMA).
For standard secretion assays, MIN6 and INS-1E cells were plated in 96-well format at a density of 4×10^4 cells per well in 100 μL of their respective growth media and incubated overnight at 37° C. in 5% CO2 to allow attachment. Cells were washed once with PBS and incubated for 1 hour at 37° C. in sterile, 0.45 μm-filtered Krebs Ringer Buffer (KRB) containing 138 mM NaCl, 5.4 mM KCl, 2.6 mM MgCl2, 2.6 mM CaCl2, 5 mM NaHCO3, 10 mM HEPES and 5 g/L bovine serum albumin (Sigma®). The cells were then washed in KRB once and stimulated for 1 hour in 100 μL of fresh KRB containing varying amounts of glucose and compounds. The insulin concentration was determined using an insulin ELISA (ALPCO®) with the supplied protocol. Luciferase activity was determined from the same samples by adding the coelenterazine substrate (Nanolight®) to the supernatant to a final concentration of 20 μM and reading on a standard plate reader (Biotek™, Winooski, Vt.).
The preproamlyin constructs was introduced into the MIN6 mouse beta cell line (FIGS. 3A and 3B).

Assay [3] has as its system Alpha TC1 mouse alpha cell line. In words: Luciferase secretion, proglucagon-luciferase (G2) reporter in alpha cells. Format: cell-based. Particulars: glucose 0-300 mg/dL (0-16.7 mM). The protocol:
The preglucagon G^2 construct was introduced into the Alpha TC1 mouse alpha cell line. Cells were stimulated with IBMX, arginine, or potassium chloride (KCl) and varying amounts of glucose in the range of 0-300 mg/dL (0-16.7 mM). Luciferase activity of the supernatant was determined (FIG. 6).

The test system of a further assay is GLUTag mouse L-cell line. The assay is described as follows: Luciferase secretion, proglucagon-luciferase (G2) reporter in L cells. The format is cell-based. As to the method:
The proglucagon G^2 construct was also introduced into the GLUTag mouse L-cell line. Cells were stimulated with Forskolin/IBMX, KCl, glipizide, PMA, and L-glutamine. Luciferase activity of the supernatant was determined.

In the case of `CN(C)CC[C@@H](c1ccc(Cl)cc1)c1ccccn1` [(S)-chlorpheniramine], the Z-score in assay [1] amounted to 31.8. As to `COc1c2ccoc2cc2oc(=O)ccc12` [Bergapten], in assay [1], the “Z-score With Glucose” value turned out to be 20.9 and the “Z-score Without Glucose” value was 2.9. With `CCN(CC)CCNC(C(=O)OCCC(C)C)c1ccccc1` (stereo not drawn) [Camylofine], in assay [1], the Z-score is listed as 23.8, the “Z-score With Glucose” value came to 4.7 and the “Z-score Without Glucose” value is 0.2. As for `COc1ccccc1OCCNCC(O)COc1cccc2[nH]c3ccccc3c12` (stereo not drawn) [Carvedilol], the “Z-score Without Glucose” value in assay [1] is 1.5. For `Clc1ccc(Cn2c(CN3CCCC3)nc3ccccc32)cc1` [Clemizole], in assay [1], the “Z-score With Glucose” value was found to be 12.2 and the “Z-score Without Glucose” value came to 0.4. Turning to `CC(=O)[C@@]1(O)CC[C@H]2[C@@H]3CCC4=CC(=O)CC[C@]4(C)[C@H]3CC[C@@]21C` [Hydroxyprogesterone], in assay [1] (difference of Z-score with and without glucose), the “Z-score Δ” value was found to be 15.6. Also, in assay [1], the “Z-score With Glucose” value is 18.3 and the “Z-score Without Glucose” value was found to be 2.7. Take `CC(C)Cn1c(=O)n(C)c(=O)c2[nH]cnc21` [IBMX, 3-isobutyl-1-methylxanthine]: the “luciferase activity (luminescence)” value in assay [2] is listed as “increased luminescence in a dose-dependent manner”. The “luciferase secretion (luciferase activity of the supernatant)” value in assay [3] is given as “no secretion of luciferase”. In the case of `[Cl-].[K+]` [KCl, potassium chloride], the “luciferase activity (luminescence)” value in assay [2] is “increased luminescence in a dose-dependent manner”. The “luciferase secretion (luciferase activity of the supernatant)” value (in assay [3]; with GLUTag mouse L-cell line) was “secreted luciferase” in each case. Consider `NC(=O)CC[C@H](N)C(=O)O` [L-glutamine], for which, in the assay with GLUTag mouse L-cell line, the “luciferase secretion (luciferase activity of the supernatant)” value is “no secretion of luciferase”. As for `C[C@@H]1CC(=O)NN=C1c1ccc(NN=C(C#N)C#N)cc1` [Levosimendan], in assay [1], the Z-score is 40.7. Take `Oc1ccc(OCc2ccccc2)cc1` [Monobenzone]: in assay [1], the Z-score is on record as 38.7, the “Z-score With Glucose” value is 31.8 and the “Z-score Without Glucose” value amounted to 5.6. For `CCN(CC)CCOC(=O)C(Cc1cccc2ccccc12)CC1CCCO1` (stereo not drawn) [Nafronyl], in that order: 25.4, 17.8 and 3.4. In the case of `Cc1ccccc1C(OCCN(C)C)c1ccccc1` (stereo not drawn) [Orphenadrine], the Z-score in assay [1] is given as 27.4. Regarding `CCCCCCCCCCCCCC(=O)O[C@@H]1[C@@H](C)[C@@]2(O)[C@@H](C=C(CO)C[C@]3(O)C(=O)C(C)=C[C@@H]23)[C@@H]2C(C)(C)[C@]12OC(C)=O` [PMA, phorbol myristate acetate], in assay [2], the “luciferase activity (luminescence)” value is reported as “increased luminescence in a dose-dependent manner”. Further, in the assay with GLUTag mouse L-cell line, the “luciferase secretion (luciferase activity of the supernatant)” value is recorded as “secreted luciferase”.

As to `CCCNCC(O)COc1ccccc1C(=O)CCc1ccccc1` (stereo not drawn) [Propafenone], in assay [1], the “Z-score With Glucose” value is recorded as 10.5 and the “Z-score Without Glucose” value is reported as 1.5. On the same counts, the results for `O=C(CCCN1CCC2(CC1)C(=O)NCN2c1ccccc1)c1ccc(F)cc1` [Spiperone] are 9.0 and −2.8. Take `Nc1c2c(nc3ccccc13)CCCC2` [Tacrine]: the Z-score in assay [1] worked out at 38.8. Still for that read-out and setting: the result for `Nc1nc(N)c2nc(-c3ccccc3)c(N)nc2n1` [Triamterene] reads 76.3. The same measure, in the same setting: next, `OC(CCN1CCCCC1)(c1ccccc1)C1CCCCC1` (stereo not drawn) [Trihexyphenidyl]: 50.5.

`N=C(N)NCCC[C@H](N)C(=O)O` [arginine]: in assay [3], the “luciferase secretion (luciferase activity of the supernatant)” value is listed as “secreted luciferase”.

Consider `Cc1cnc(C(=O)NCCc2ccc(S(=O)(=O)NC(=O)NC3CCCCC3)cc2)cn1` [glipizide], for which the “luciferase activity (luminescence)” value in assay [2] is given as “did not increase luciferase activity”. Besides, the “luciferase secretion (luciferase activity of the supernatant)” value in the assay on GLUTag mouse L-cell line is “no secretion of luciferase”. Moreover, in assay [1] (screen in presence and absence of 100 mg/dL glucose), the luciferase secretion entry is “caused luciferase secretion regardless of the ambient glucose level”.
